Experimental findings from ChEMBL document CHEMBL1201862, “PubChem BioAssay data set” (2004) are described below.

Holding throughout (assay): DTP human tumour cell line panel, 48 h
For assay [1], the system named is SW-620.
Assay [2] has as its system NCI-H226.
In assay [3] the test system is SK-OV-3.
In assay [4] the test system is HCT-15.
The test system of assay [5] is SF-268.
The test system of assay [6] is HCT-116.
For assay [7], the system named is OVCAR-3.
Assay [8] has as its system LXFL 529.
Assay [9] relates to NCI-H460.
The test system of assay [10] is U-251.
In assay [11] the test system is HOP-92.
Assay [12] concerns OVCAR-4.
Assay [13] deals with 786-0.
For assay [14], the system named is CCRF-CEM.
The subject of assay [15] is TK-10.
Assay [16] has as its system SR.
Assay [17] deals with HOP-62.
Assay [18] has as its system SK-MEL-5.

What is called GI50 is the concentration at which growth is held to half of that of the control.

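These data come from cells grown in 96-well plates and exposed to compound for 48 hours at five concentrations. GI50 marks 50% less growth.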 Calls of active or inactive are those of the source. Cut-off read from the data, not from the text of the source: active = GI50 up to about 1.1 µM and inactive = higher.

As for `CC(=O)/C=C/c1cccc(N=S)c1`, the GI50 was 2.44 µM (inactive) in assay [1]; 46 µM (inactive) in [2]; > 48.1 µM (inactive) in assay [3]; 8.79 µM in [4]; > 30.3 µM (inactive) in [5]; 1.39 µM (inactive) in assay [6]. In addition, the GI50 was 19.2 µM (inactive) in [7]; 5.78 µM (inactive) in [8]; > 36.9 µM (inactive) in assay [9]; 6.64 µM (inactive) in assay [10]; > 100 µM (inactive) in assay [11]; 52.2 µM (inactive) in assay [12]. In addition, the GI50 in assay [13] is 6 µM (inactive); in assay [14], 8.24 µM (inactive); in assay [15], > 52.8 µM (inactive); in [16] it was 7.78 µM (inactive); in assay [17], > 63.5 µM (inactive); in assay [18], 23.4 µM (inactive).
With `[N-]=[N+]=Nc1ncnc2c1sc(=S)n2-c1ccccc1`, the GI50 in assay [1] is > 100 µM (inactive); in [2] it was > 100 µM (inactive); in assay [3] it was > 100 µM (inactive); in assay [4] it was > 100 µM; in assay [5], > 100 µM (inactive); in assay [6], > 100 µM (inactive). Also, the GI50 in assay [7], in assay [8], in [9], in [10], in assay [11] and in [12] was > 100 µM (inactive) each time. The GI50 in [13] was > 100 µM (inactive); in assay [14] it was > 100 µM (inactive); in assay [15], > 100 µM (inactive); in assay [16], > 100 µM (inactive); in [17], 21.6 µM (inactive); in assay [18], > 100 µM (inactive).
For `Cc1ccc(NC(=O)CCc2n[nH]c(=S)o2)cc1`, the GI50 was > 100 µM (inactive) in assay [1]; > 100 µM (inactive) in [2]; > 100 µM in assay [4]; > 100 µM (inactive) in assay [5]; > 100 µM (inactive) in assay [6]; > 100 µM (inactive) in [7]. Also, the GI50 in assay [8], in assay [9], in assay [10], in assay [11], in assay [12] and in assay [13] was > 100 µM (inactive) in each case. Further, the GI50 is 62.8 µM (inactive) in [14]; > 100 µM (inactive) in [15]; > 100 µM (inactive) in assay [16]; > 100 µM (inactive) in assay [17]; > 100 µM (inactive) in assay [18].
In the case of `CCN(CC)c1ccc(/N=N/c2ccc(-c3nc4cccnc4s3)cc2)cc1`, the GI50 in assay [1] is > 100 µM (inactive); in [2], > 100 µM (inactive); in [3], > 100 µM (inactive); in [5] it was 57.5 µM (inactive); in assay [6], > 100 µM (inactive); in [7], > 100 µM (inactive). The GI50 in assay [8] is > 100 µM (inactive); in assay [9] it was 60.3 µM (inactive); in assay [10], > 100 µM (inactive); in [11] it was > 100 µM (inactive); in [12], 43.3 µM (inactive); in assay [13], 45.4 µM (inactive). Besides, the GI50 in [14], in [15], in assay [16], in assay [17] and in [18] was > 100 µM (inactive) each time.
